Measurements taken from patent publication US20250243488A1, “METHODS OF MODULATING PROGRANULIN EXPRESSION USING ANTISENSE OLIGONUCLEOTIDES TARGETING REGULATORY RNAS” (Camp4 Therapeutics Corporation, priority 2022, published 2025).
Oligonucleotides are written 5' to 3', each unit as a sugar letter and its base; * is a phosphorothioate linkage, no mark a phosphodiester; rarer units and linkages stand in square brackets, end groups in braces. Plain capitals give the bases only. e = 2'-O-(2-methoxyethyl) (MOE); l = locked nucleic acid (LNA); [5mC] = 5-methylcytosine; d = 2'-deoxy (DNA)

Test system: GRN mRNA
Experiment: GRN mRNA qPCR in SK-N-AS cells transfected with ASOs
Type: cell-based, human
Details: SK-N-AS; for hit identification (GRN mRNA dose escalation): 3.75 nM to 120 nM; for hGRN mRNA FC / 120 nM FC (GRN mRNA): 120 nM
Outline: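 Human neuroblastoma SK-N-AS cells transfected with ASOs at increasing concentrations (20 to 160 nM in initial titrations); GRN mRNA quantified by qPCR after 48 hours. Normalized to GAPDH and PPIA, fold change relative to steric non-targeting control ASO(s) (sNTC/CO-1589, with CO-3772 and CO-1929 in some series).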

[1] = Table 9, 48 hours post-transfection, normalized to CO-1589
[2] = Table 10, 48 hours, normalized to CO-1589
[3] = Table 3, normalized to CO-3772 and CO-1589 (sNTC1)
[4] = Table 12, normalized to CO-1589
[5] = Table 11, 48 hours, normalized to CO-1589
[6] = Table 6, normalized to CO-3772, CO-1589 and CO-1929
[7] = Table 5, normalized to CO-3772, CO-1589 and CO-1929

CO-4622: ASO designed to target intergenic enhancers (eRNA) (antisense eA*e[5mC]*eA*eG*eT*eG*eG*e[5mC]*e[5mC]*eG*e[5mC]*eA*eT*eA*eA*eA*eT*eT*eT*e[5mC])
hit identification (GRN mRNA dose escalation) (48 hours): initial hits | hGRN mRNA FC [1]: 1.0 FC | 3.75 nM FC (GRN mRNA) [2]: 1.0 FC | 7.5 nM FC (GRN mRNA) [2]: 1.0 FC | 15 nM FC (GRN mRNA) [2]: 1.0 FC | 30 nM FC (GRN mRNA) [2]: 1.0 FC | 60 nM FC (GRN mRNA) [2]: 1.1 FC | 120 nM FC (GRN mRNA) [2]: 1.1 FC

CO-4356: LNA/PS modified ASO based on CO-3423 (antisense eG*eG*lA*e[5mC]*eT*lT*eG*eG*lG*eA*eG*lT*eG*eG*lT*eG*eA*l[5mC]*eT*eG)
30 nM FC (GRN mRNA) [3]: 1.6 FC | 60 nM FC (GRN mRNA) [3]: 1.8 FC | 120 nM FC (GRN mRNA) [3]: 2.2 FC

CO-4648: ASO designed to target intergenic enhancers (eRNA) (antisense eA*e[5mC]*eG*e[5mC]*e[5mC]*eA*eA*eA*e[5mC]*e[5mC]*e[5mC]*eT*eT*eG*eA*eT*e[5mC]*e[5mC]*eA*eG)
hGRN mRNA FC [1]: 1.6 FC

CO-4355: LNA/PS modified ASO based on CO-3423 (antisense eG*eG*lA*e[5mC]*lT*eT*lG*eG*lG*eA*lG*eT*lG*eG*lT*eG*lA*e[5mC]*eT*eG)
30 nM FC (GRN mRNA) [3]: 1.6 FC | 60 nM FC (GRN mRNA) [3]: 1.8 FC | 120 nM FC (GRN mRNA) [3]: 1.9 FC

CO-4638: ASO designed to target intergenic enhancers (eRNA) (antisense eT*eT*eG*eA*eT*eA*eG*eA*eT*eG*eG*e[5mC]*eA*eG*eG*eT*e[5mC]*eA*eG*eG)
hGRN mRNA FC [1]: 1.0 FC

CO-6380: ASO based on parent ASO CO-3462 (antisense eA*eA*eA*eA*e[5mC]*eA*eA*eA*e[5mC]*eA*e[5mC]*eA*e[5mC]*eA*eA*eG*eT*e[5mC]*e[5mC]*eG)
30 nM FC (GRN mRNA) [4]: 0.8 FC | 60 nM FC (GRN mRNA) [4]: 0.8 FC | 120 nM FC (GRN mRNA) [4]: 0.8 FC

CO-6435: ASO designed to target an intragenic enhancer RNA (eRNA) (eA*eG*eG*e[5mC]*e[5mC]*eA*e[5mC]*e[5mC]*eT*eG*e[5mC]*eT*eG*e[5mC]*eT*e[5mC]*e[5mC]*eG*eA*eT)
hGRN mRNA FC [5]: 1.2 FC

CO-4649: ASO designed to target intergenic enhancers (eRNA) (antisense eT*eG*eG*eG*eA*e[5mC]*eA*eG*e[5mC]*eG*eT*eG*eG*eA*eT*eT*eA*eA*eT*eA)
hit identification (GRN mRNA dose escalation) (48 hours): initial hits | hGRN mRNA FC [1]: 1.2 FC | 3.75 nM FC (GRN mRNA) [2]: 1.2 FC | 7.5 nM FC (GRN mRNA) [2]: 1.2 FC | 15 nM FC (GRN mRNA) [2]: 1.3 FC | 30 nM FC (GRN mRNA) [2]: 1.2 FC | 60 nM FC (GRN mRNA) [2]: 1.2 FC | 120 nM FC (GRN mRNA) [2]: 1.3 FC

CO-4602: ASO designed to target intergenic enhancers (eRNA) (antisense eT*eA*e[5mC]*eT*e[5mC]*e[5mC]*eT*eA*eG*e[5mC]*e[5mC]*eT*eG*e[5mC]*eG*e[5mC]*e[5mC]*eT*eT*eT)
hGRN mRNA FC [1]: 1.2 FC

CO-4353: LNA/PS modified ASO based on CO-3423 (antisense eG*eG*eA*e[5mC]*eT*lT*dG*dG*lG*dA*dG*lT*dG*dG*lT*eG*eA*e[5mC]*eT*eG)
30 nM FC (GRN mRNA) [3]: 1.4 FC | 60 nM FC (GRN mRNA) [3]: 1.4 FC | 120 nM FC (GRN mRNA) [3]: 1.8 FC

CO-4611: ASO designed to target intergenic enhancers (eRNA) (antisense eT*eA*eT*eT*eA*eA*eT*e[5mC]*e[5mC]*eA*e[5mC]*eG*e[5mC]*eT*eG*eT*e[5mC]*e[5mC]*e[5mC]*eA)
hit identification (GRN mRNA dose escalation) (48 hours): initial hits | hGRN mRNA FC [1]: 1.4 FC | 3.75 nM FC (GRN mRNA) [2]: 1.1 FC | 7.5 nM FC (GRN mRNA) [2]: 1.1 FC | 15 nM FC (GRN mRNA) [2]: 1.1 FC | 30 nM FC (GRN mRNA) [2]: 1.1 FC | 60 nM FC (GRN mRNA) [2]: 1.1 FC | 120 nM FC (GRN mRNA) [2]: 1.3 FC

CO-4457: mixed PO/PS bond version of CO-3431 (antisense eA*eT*eTeGe[5mC]eAeGeTeGeAe[5mC]eGe[5mC]e[5mC]e[5mC]e[5mC]eGeT*eT*eA)
30 nM FC (GRN mRNA) [6]: 0.2 FC | 60 nM FC (GRN mRNA) [6]: 0.1 FC | 120 nM FC (GRN mRNA) [6]: 0.1 FC

CO-4597: ASO designed to target intergenic enhancers (eRNA) (antisense eA*eG*eG*e[5mC]*eG*eT*e[5mC]*e[5mC]*eT*eT*eT*e[5mC]*e[5mC]*eA*eT*eT*e[5mC]*e[5mC]*e[5mC]*eT)
hGRN mRNA FC [1]: 0.9 FC

CO-4645: ASO designed to target intergenic enhancers (eRNA) (antisense eA*e[5mC]*eA*eG*e[5mC]*eA*eG*eA*eA*e[5mC]*eA*eT*e[5mC]*e[5mC]*e[5mC]*eG*eT*eG*eA*eA)
hGRN mRNA FC [1]: 1.4 FC

CO-6411: ASO based on parent ASO CO-3462 (antisense eT*eA*eGeGeA*eG*eA*eA*eT*e[5mC]*eG*e[5mC]*eT*eT*eT*eGeGeG*eA*eG)
30 nM FC (GRN mRNA) [4]: 1.1 FC | 60 nM FC (GRN mRNA) [4]: 1.4 FC | 120 nM FC (GRN mRNA) [4]: 1.8 FC

CO-6399: ASO based on parent ASO CO-3462 (antisense eG*eT*eA*eG*eG*eA*dG*dA*dA*dT*d[5mC]*dG*d[5mC]*dT*dT*dT*eG*eG*eG*eA*eG*e[5mC])
30 nM FC (GRN mRNA) [4]: 1.3 FC | 60 nM FC (GRN mRNA) [4]: 1.6 FC | 120 nM FC (GRN mRNA) [4]: 1.9 FC

CO-4455: mixed PO/PS bond version of CO-3431 (antisense eA*eT*eTeGe[5mC]*eA*eG*eT*eG*eA*e[5mC]*eG*e[5mC]*e[5mC]*e[5mC]*e[5mC]eGeT*eT*eA)
30 nM FC (GRN mRNA) [6]: 0.5 FC | 60 nM FC (GRN mRNA) [6]: 0.4 FC | 120 nM FC (GRN mRNA) [6]: 0.4 FC

CO-6451: ASO designed to target an intragenic enhancer RNA (eRNA) (eA*e[5mC]*eG*eT*eT*eT*eG*e[5mC]*eT*e[5mC]*e[5mC]*eT*e[5mC]*eT*eT*e[5mC]*e[5mC]*eA*eG*eT)
hGRN mRNA FC [5]: 1.0 FC

CO-4595: ASO designed to target intergenic enhancers (eRNA) (antisense eA*eG*e[5mC]*e[5mC]*e[5mC]*eG*eA*e[5mC]*e[5mC]*eT*eT*eG*eA*e[5mC]*eT*eG*eA*eT*eA*eG)
hGRN mRNA FC [1]: 1.0 FC

CO-4629: ASO designed to target intergenic enhancers (eRNA) (antisense eA*eT*eG*eG*e[5mC]*eA*eA*eA*eT*eG*eA*e[5mC]*e[5mC]*eT*eT*e[5mC]*eG*eG*eT*eA)
hGRN mRNA FC [1]: 1.1 FC

CO-4453: mixed PO/PS bond version of CO-3423 (antisense eG*eG*eAe[5mC]eT*eT*eG*eG*eG*eA*eG*eT*eG*eG*eT*eGeAe[5mC]*eT*eG)
30 nM FC (GRN mRNA) [7]: 1.4 FC | 60 nM FC (GRN mRNA) [7]: 1.9 FC | 120 nM FC (GRN mRNA) [7]: 1.9 FC

CO-6431: ASO designed to target an intragenic enhancer RNA (eRNA) (eA*e[5mC]*eG*eG*eA*e[5mC]*e[5mC]*eT*e[5mC]*e[5mC]*eT*e[5mC]*eA*e[5mC]*eT*eA*eA*eG*e[5mC]*eT)
hGRN mRNA FC [5]: 0.8 FC

CO-6455: ASO designed to target an intragenic enhancer RNA (eRNA) (e[5mC]*eT*e[5mC]*eA*eT*eT*eG*eA*e[5mC]*eT*e[5mC]*e[5mC]*eA*eA*eG*eT*eG*eT*eA*eG)
hGRN mRNA FC [5]: 0.9 FC
